The compounds below were run on IL-2 production (assay: Inhibition of IL-2 production (Jurkat/PHA/1% FBS, ELISA)). Settings: Homo sapiens, Jurkat, 20 h, Jurkat cells, PHA 2.5 μg/mL.
Assay type: cell-based
Protocol: JurkaT-cells were placed in a 96 well plate (0.5 million cells per well in 1% FBS medium), and then a test compound of this invention was added at different concentrations. After 10 minutes, the cells were activated with PHA (final concentration 2.5 μg/mL) and incubated for 20 hours at 37° C. under 5% CO2. The final volume was 200 μL. Following incubation, the cells were centrifuged, and the supernatants collected and stored at −70° C. prior to assaying for IL-2 production. A commercial ELISA kit (IL-2 Eli-pair, Diaclone Research, Besancon, France) was used to detect production of IL-2, from which dose response curves were obtained. The IC50 value was calculated as the concentration at which 50% of maximum IL-2 production after stimulation was inhibited versus a non-stimulation control.

| IC50 [nM] | SMILES |
| --- | --- |
| 12 | CCC1=C(c2ccc(NC(=O)c3cccc(F)c3F)cc2)CN(c2nnn(CF)n2)CC1 [Compound 3] |
| 77 | CCCn1nnc(N2CCC(C)=C(c3ccc(NC(=O)c4cccc(F)c4F)cc3)C2)n1 [Compound 52] |
| 56 | CC1=C(c2ccc(NC(=O)c3c(F)cccc3F)cc2)CN(c2nnn(C(C)C)n2)CC1 [Compound 44] |
| 127 | CC1=C(c2ccc(C(=O)Nc3c(F)cccc3F)cn2)CN(c2nnn(C)n2)CC1 [Compound 65] |
| 423 | CC1=C(c2cnc(NC(=O)c3ccncc3Cl)cn2)CN(c2nnn(C)n2)CC1 [Compound 73] |
| 163 | COc1cccc(F)c1C(=O)Nc1ccc(C2=C(C)CCN(c3nnn(C)n3)C2)cc1 [Compound 68] |
| 37 | CC1=C(c2ccc(NC(=O)c3ccncc3F)cc2)CN(c2nnn(C)n2)CC1 [Compound 26] |
| 49 | CC(C)C1=C(c2cnc(NC(=O)c3c(F)cccc3F)cn2)CN(c2nnn(C)n2)CC1 [Compound 35] |
| 116 | CC1=C(c2cnc(NC(=O)c3cccc(F)c3C)cn2)CN(c2nnn(C)n2)CC1 [Compound 61] |
| 55 | CC1=C(c2ccc(NC(=O)c3ccccc3F)nc2)CN(c2nnn(C)n2)CC1 [Compound 42] |
| 105 | CCc1c(F)cncc1C(=O)Nc1ccc(C2=C(C)CCN(c3nnn(CC)n3)C2)cc1 [Compound 59] |
| 10 | [2H]C([2H])([2H])n1nnc(N2CCC(C)=C(c3ccc(NC(=O)c4cccc(F)c4F)cc3)C2)n1 [Compound 1] |
| 150 | Cc1ccncc1C(=O)Nc1ccc(C2=C(Cl)CCN(c3nnn(C)n3)C2)cn1 [Compound 67] |
| 335 | CC1=C(c2cnc(NC(=O)c3cnccc3C)cn2)CN(c2nnn(C)n2)CC1 [Compound 72] |
| 100 | CC1=C(c2ccc(NC(=O)c3c(Cl)cncc3Cl)cc2)CN(c2nnn(C)n2)CC1 [Compound 57] |
| 26 | CC1=C(c2ccc(NC(=O)c3cccc(F)c3F)cc2)CN(c2nnn(C(F)F)n2)CC1 [Compound 21] |
| 12 | Cn1nnc(N2CCC(Cl)=C(c3ccc(NC(=O)c4c(F)cccc4F)nc3)C2)n1 [Compound 4] |
| 289 | CCn1nnc(N2CCC(C)=C(c3ccc(NC(=O)c4cc(C)ncc4C)cc3)C2)n1 [Compound 70] |
| 56 | Cn1nnc(N2CCC(Cl)=C(c3ccc(NC(=O)c4ccncc4Cl)cc3)C2)n1 [Compound 43] |
| 13 | CC1=C(c2ccc(NC(=O)c3cncc(F)c3C)cc2)CN(c2nnn(C)n2)CC1 [Compound 6] |
| 147 | CC1=C(c2cnc(NC(=O)c3cncc(F)c3C)cn2)CN(c2nnn(C)n2)CC1 [Compound 66] |
| 67 | CCC1=C(c2cnc(NC(=O)c3ccc(F)cc3F)cn2)CN(c2nnn(C)n2)CC1 [Compound 49] |
| 803 | CC1=C(c2cnc(NC(=O)c3cc(F)cc(F)c3)cn2)CN(c2nnn(C)n2)CC1 [Compound 75] |
| 75 | CC1=C(c2ccc(NC(=O)c3ccccc3Cl)nc2)CN(c2nnn(C)n2)CC1 [Compound 51] |
| 74 | CC1=C(c2cnc(C(=O)Nc3c(F)cccc3F)cn2)CN(c2nnn(C)n2)CC1 [Compound 50] |
| 46 | CC1=C(c2cnc(NC(=O)c3c(F)cccc3F)cn2)CN(c2nnn(C)n2)CC1 [Compound 32] |
| 312 | CC1=C(c2ccc(NC(=O)c3cccc(F)c3F)cc2)CN(c2nnn(CC(C)C)n2)CC1 [Compound 71] |
| 33 | CCC1=C(c2ccc(NC(=O)c3cccc(F)c3F)cc2)CN(c2nnn(CC)n2)CC1 [Compound 24] |

More lines, now with the values behind:

| SMILES | IC50 [nM] |
| --- | --- |
| CC1=C(c2ccc(NC(=O)c3c(F)cccc3F)cc2)CN(c2nnn(C)n2)CC1 [Compound 11] | 17 |
| Cn1nnc(N2CCC(C3CC3)=C(c3cnc(NC(=O)c4c(F)cccc4F)cn3)C2)n1 [Compound 40] | 53 |
| CC1=C(c2cnc(NC(=O)c3cc(F)ccc3Cl)cn2)CN(c2nnn(C)n2)CC1 [Compound 56] | 99 |
| CC1=C(c2cnc(NC(=O)c3ccccc3F)cn2)CN(c2nnn(C)n2)CC1 [Compound 54] | 92 |
| COc1cc(C)c(C(=O)Nc2ccc(C3=C(C)CCN(c4nnn(C)n4)C3)cc2)cn1 [Compound 48] | 62 |
| CC1=C(c2ccc(NC(=O)c3cccnc3C)cc2)CN(c2nnn(C)n2)CC1 [Compound 60] | 114 |
| CC1=C(c2cnc(NC(=O)c3cccc(F)c3F)cn2)CN(c2nnn(C)n2)CC1 [Compound 37] | 50 |
| CC1=C(c2ccc(NC(=O)c3cccc(F)c3F)cc2)CN(c2nnn(CF)n2)CC1 [Compound 2] | 11 |
| CCn1nnc(N2CCC(C)=C(c3ccc(NC(=O)c4cccc(F)c4F)cc3)C2)n1 [Compound 34] | 47 |
| CC1=C(c2ccc(NC(=O)c3c(F)cccc3F)nc2)CN(c2nnn(C)n2)CC1 [Compound 8] | 15 |
| CCn1nnc(N2CCC(C)=C(c3ccc(NC(=O)c4cncnc4C)cc3)C2)n1 [Compound 74] | 698 |
| CC1=C(c2ccc(NC(=O)c3c(F)cccc3Cl)nc2)CN(c2nnn(C)n2)CC1 [Compound 13] | 17 |
| CC1=C(c2ccc(NC(=O)c3cccc(Cl)c3Cl)cc2)CN(c2nnn(C)n2)CC1 [Compound 62] | 124 |
| CC1=C(c2ccc(NC(=O)c3cc(F)ccc3Cl)cc2)CN(c2nnn(C)n2)CC1 [Compound 53] | 85 |
| CC(C)C1=C(c2ccc(NC(=O)c3ccc(F)cc3F)nc2)CN(c2nnn(C)n2)CC1 [Compound 64] | 126 |
| CC1=C(c2cnc(NC(=O)c3c(F)cccc3Cl)cn2)CN(c2nnn(C)n2)CC1 [Compound 5] | 13 |
| CC1=C(c2ccc(NC(=O)c3ncncc3C)cc2)CN(c2nnn(C)n2)CC1 [Compound 63] | 124 |
| CC1=C(c2cnc(NC(=O)c3ccc(F)cc3F)cn2)CN(c2nnn(C)n2)CC1 [Compound 58] | 104 |
| CC1=C(c2ccc(NC(=O)c3cnc(C)cc3C)cc2)CN(c2nnn(C)n2)CC1 [Compound 69] | 219 |
| CCC1=C(c2ccc(NC(=O)c3cccc(F)c3F)cc2)CN(c2nnn(C)n2)CC1 [Compound 7] | 14 |
| Cn1nnc(N2CCC(Cl)=C(c3ccc(NC(=O)c4ccncc4F)cc3)C2)n1 [Compound 28] | 39 |
| COc1ccc(F)cc1C(=O)Nc1ccc(C2=C(C)CCN(c3nnn(C)n3)C2)cc1 [Compound 76] | 1000 |
| CCn1nnc(N2CCC(C)=C(c3ccc(NC(=O)c4cnccc4C)cc3)C2)n1 [Compound 55] | 96 |

Same assay, conditions: Jurkat cells, PHA 2.5 μg/mL, 20 hours

| IC50 [nM] | SMILES |
| --- | --- |
| 22 | CC1=C(c2ccc(NC(=O)c3cccc(F)c3F)cc2)CN(c2nnn(C)n2)CC1 [Compound 19] |

What follows are compounds tested against T1, CRAC ion channels (ICRAC current), RBL-2H3 cells (Rattus norvegicus, UniProt Q5M848) (assay: Automated patch clamp (Qpatch) inhibition of ICRAC current in RBL-2H3 cells). Settings: 100 nM compound, % ICRAC inhibition.
T1 construct: endogenous in cells; host or cells: RBL-2H3 (rat basophilic leukemia) cells
Assay type: cell-based
Protocol: Automated patch clamp experiments are conducted with the QPatch 16 (Sophion Bioscience, Ballerup, Denmark) at room temperature (21-25° C.). Immediately following the establishment of giga-seal whole-cell configuration, the cells membrane potential is clamped at 0 mV. Voltage ramps of 50 ms duration spanning the voltage range of −100 to +100 mV are then stimulated at a rate of 0.33 Hz. Currents are filtered at 2.9 kHz and digitized at 200 μs intervals. Capacitive currents and series resistance are determined and corrected before each voltage ramp using the automatic capacitance compensation.
RBL-2H3 are grown in DMEM media supplemented with 10% fetal bovine serum, penicillin 100 U/ml and streptomycin […] in an atmosphere of 95% air/5% CO2. Cells are grown to confluence in 175 cm^2 tissue culture flask. On the experimental day, cells harvested with 0.25% trypsin/0.02% EDTA and resuspended in extracellular solution at density of 5×10^6 cells/ml.
The intracellular solution contains Cs-Glutamate 90 mM; NaCl 8 mM; MgCl2 3 mM; CsCl 20 mM; CsBAPTA 20 mM; HEPES 10 mM; InsP3 0.02 mM; pH=7.2 adjusted with CsOH.
The extracellular solution contains NMDGCl 120 mM; KCl 5.4 mM; CsCl 10 mM; CaCl2 10 mM; MgCl2 1 mM; HEPES 10 mM; Glucose 5.5 mM; at pH=7.4 adjusted with HCl.
ICRAC currents are measured using 50 msec voltage ramps between −100 mV to +100 mV. The voltage ramps are stimulated every 3 seconds for at least 570 seconds. The maximum ICRAC current is allowed to develop for at least 135 seconds. Compounds diluted in extracellular solutions are then applied twice, 30 seconds apart. After incubating the cells with compound for 435 seconds, a reference solution is applied at the end of the experiment. The reference solution is a Ca^2+ free extracellular solution.
Off-line analysis with the Qpatch software is used to plot the current value at −80 mV for each ramp trace against time. The resulting current versus time data is then exported into a Microsoft Excel spreadsheet. The ICRAC membrane currents are separated from the cells basal background currents by either subtracting out the average membrane current values during the first 1-3 traces, or the average membrane current values obtained with the reference solution at the end of the experiment. The % ICRAC inhibition in each cell is calculated by comparing the amount of current just prior to the first compound addition to the amount of current after the cells has been perfused with the compound for at least 400 seconds.

T1 sequence (Q5M848 whole entry): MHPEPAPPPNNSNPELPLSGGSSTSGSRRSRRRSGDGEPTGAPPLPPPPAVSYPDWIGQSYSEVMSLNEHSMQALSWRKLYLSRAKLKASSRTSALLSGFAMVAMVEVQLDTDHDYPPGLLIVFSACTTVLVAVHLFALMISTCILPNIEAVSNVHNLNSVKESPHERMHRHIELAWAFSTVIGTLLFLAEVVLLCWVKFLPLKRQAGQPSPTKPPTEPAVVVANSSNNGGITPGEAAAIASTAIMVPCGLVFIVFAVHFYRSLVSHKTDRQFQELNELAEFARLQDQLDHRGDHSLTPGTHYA

| inhibition at 0.1 µM [%] | SMILES |
| --- | --- |
| 69 | CC1=C(c2ccc(NC(=O)c3cccc(F)c3Cl)cc2)CN(c2nnn(C)n2)CC1 [Compound 16] |
| 69 | CC1=C(c2ccc(NC(=O)c3ccncc3F)cc2)CN(c2nnn(C)n2)CC1 [Compound 26] |
| 64 | CC1=C(c2cnc(NC(=O)c3cccc(F)c3C)cn2)CN(c2nnn(C)n2)CC1 [Compound 61] |
| 85 | CC1=C(c2ccc(NC(=O)c3cc(F)ccc3C)nc2)CN(c2nnn(C)n2)CC1 [Compound 29] |
| 81 | CCn1nnc(N2CCC(C)=C(c3cnc(NC(=O)c4c(F)cccc4Cl)cn3)C2)n1 [Compound 23] |
| 72 | CC1=C(c2ccc(NC(=O)c3c(C)cccc3Cl)cc2)CN(c2nnn(C)n2)CC1 [Compound 31] |
| 88 | Cn1nnc(N2CCC(Cl)=C(c3cnc(NC(=O)c4cc(F)ccc4Cl)cn3)C2)n1 [Compound 36] |
| 74 | Cn1nnc(N2CCC(Cl)=C(c3ccc(NC(=O)c4c(F)cccc4F)cc3)C2)n1 [Compound 18] |

More lines, now with the values behind:

| SMILES | inhibition at 0.1 µM [%] |
| --- | --- |
| CC1=C(c2ccc(NC(=O)c3c(F)cccc3F)cc2)CN(c2nnn(C)n2)CC1 [Compound 11] | 53 |
| Cn1nnc(N2CCC(C3CC3)=C(c3cnc(NC(=O)c4c(F)cccc4F)cn3)C2)n1 [Compound 40] | 54 |
| CC1=C(c2cnc(NC(=O)c3cc(F)ccc3Cl)cn2)CN(c2nnn(C)n2)CC1 [Compound 56] | 84 |
| CC1=C(c2cnc(NC(=O)c3ccccc3F)cn2)CN(c2nnn(C)n2)CC1 [Compound 54] | 77 |
| CC1=C(c2cnc(NC(=O)c3cccc(F)c3F)cn2)CN(c2nnn(C)n2)CC1 [Compound 37] | 61 |
| CC1=C(c2ccc(NC(=O)c3cccc(F)c3C)nc2)CN(c2nnn(C)n2)CC1 [Compound 20] | 65 |
| CC1=C(c2ccc(NC(=O)c3ccncc3Cl)cc2)CN(c2nnn(C)n2)CC1 [Compound 15] | 53 |

From patent publication US20130289071A1, “TETRAZOLYL-TETRAHYDROPYRIDINE COMPOUNDS FOR INFLAMMATION AND IMMUNE-RELATED USES” (Synta Pharmaceuticals Corp., priority 2010, published 2013)
